The pKd is the Kd on a negative log10 scale, so that one unit is a factor of ten. For orientation: GI50 means the concentration giving 50% growth inhibition. Read a low GI50 as more potent growth inhibition. A word on the pIC50: it is the IC50 on a negative log10 scale, so that one unit is a factor of ten. Lower therefore signals a large IC50.

Assay [1] has as its target T1, Bromodomain-containing protein 4 (Homo sapiens, UniProt O60885). In words: Inhibition of BRD4 bromodomain 1/2 (unknown origin) assessed as dissociation constant by DiscoveRx BROMOscan assay.
For assay [2], the system named is MV4-11. Put plainly: Growth inhibition of human MV4-11 cells measured after 72 hrs. Type of assay: functional.
Assay [3] addresses T1, Bromodomain-containing protein 4. Put plainly: Inhibition of BRD4 bromodomain 1/2 (unknown origin) by Alphascreen assay.

Each structure is given as a SMILES string. pIC50, pKd: −log10 of the molar value. Bounds are passed on as bounds.

For `Cc1noc(C)c1-c1ccc2[nH]c(=O)cc(NCc3cc(Cl)cc(Cl)c3)c2c1`, the negative-log Kd (pKd) in assay [1] was 6.77. The GI50 in assay [2] is 1400 nM.

`Cc1noc(C)c1-c1ccc2[nH]c(=O)cc(NCc3ccc(Cl)cc3)c2c1`: the pKd in assay [1] is 6.68. Halving of growth in assay [2] (GI50) required 1700 nM.

With `Cc1noc(C)c1-c1ccc2[nH]c(=O)cc(N3CCOCC3)c2c1`, the pKd in assay [1] was 6.24.

With `Cc1noc(C)c1-c1ccc2[nH]c(=O)cc(NCC3CCCCC3)c2c1`, in assay [1], the pKd is 6.60. Also, the GI50 in assay [2] worked out at 3780 nM.

In the case of `Cc1noc(C)c1-c1ccc2[nH]c(=O)cc(O)c2c1`, the pIC50 in assay [3] is 4.80. The pKd in assay [1] was 5.47. This molecule also returned a concentration for 50% growth inhibition (GI50) in assay [2] of over 100000 nM.

On to `Cc1noc(C)c1-c1ccc2c(-c3ccccc3)cc(=O)[nH]c2c1`, for which the pIC50 in assay [3] was 5.51. Moreover, in assay [1], the pKd is 5.13. In assay [2], this molecule showed a GI50 of 14000 nM.

`Cc1noc(C)c1-c1ccc2[nH]c(=O)cc(NCCc3ccccc3)c2c1`: the negative logarithm of the Kd (pKd) in assay [1] is 6.31. The molecule also gave a GI50 in assay [2] of 5720 nM.

As to `COc1cccc(CNc2cc(=O)[nH]c3ccc(-c4c(C)noc4C)cc23)c1`, the pKd in assay [1] was 7.02. In assay [2], the GI50 was 1580 nM.

With `Cc1noc(C)c1-c1ccc2[nH]c(=O)cc(NCc3cccc(C(F)(F)F)c3)c2c1`, the negative logarithm of the Kd (pKd) in assay [1] is 6.66.

As to `Cc1noc(C)c1-c1ccc2[nH]c(=O)cc(NCc3cccc(Cl)c3)c2c1`, in assay [1], the pKd is 7.55. In assay [2], this molecule came in with a 50% growth inhibitory concentration (GI50) of 1220 nM.

The record behind these values is ChEMBL document CHEMBL5252613, “Discovery and anti-tumor activity of 4-(benzylamino)-6-(3,5-dimethylisoxazol-4-yl)quinolin-2(1H)-one (CG13250), a potent, selective and orally bioavailable BET bromodomain inhibitor” (Bioorg Med Chem Lett, 2023).
